In PubChem BioAssay (NCI):
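1) Cells in 96-well plates. 2) Compound, 48 h, 5 concentrations. 3) Linear interpolation between surrounding doses. 4) Unreached endpoint = highest concentration. TGI: concentration producing complete growth inhibition.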

Legend:
Test in all cases: DTP human tumour cell line panel, 48 h
786-0 renal = system: 786-0 renal
A498 renal = system: A498 renal
A549 NSCLC = system: A549 NSCLC
ACHN renal = system: ACHN renal
CCRF-CEM leukemia = system: CCRF-CEM leukemia
COLO 205 colon = system: COLO 205 colon
DLD-1 colon = system: DLD-1 colon
DMS 114 small cell lung = system: DMS 114 small cell lung
DMS 273 small cell lung = system: DMS 273 small cell lung
EKVX NSCLC = system: EKVX NSCLC
HCC-2998 colon = system: HCC-2998 colon
HCT-116 colon = system: HCT-116 colon
HCT-15 colon = system: HCT-15 colon
HL-60(TB) leukemia = system: HL-60(TB) leukemia
HOP-62 NSCLC = system: HOP-62 NSCLC
HT29 colon = system: HT29 colon
IGROV1 ovarian = system: IGROV1 ovarian
K-562 leukemia = system: K-562 leukemia
KM20L2 colon = system: KM20L2 colon
LOX IMVI melanoma = system: LOX IMVI melanoma
LXFL 529 NSCLC = system: LXFL 529 NSCLC
M14 melanoma = system: M14 melanoma
M19-MEL melanoma = system: M19-MEL melanoma
MALME-3M melanoma = system: MALME-3M melanoma
MOLT-4 leukemia = system: MOLT-4 leukemia
NCI-H226 lung = system: NCI-H226 lung
NCI-H23 lung = system: NCI-H23 lung
NCI-H460 lung = system: NCI-H460 lung
OVCAR-3 ovarian = system: OVCAR-3 ovarian
OVCAR-4 ovarian = system: OVCAR-4 ovarian
OVCAR-8 ovarian = system: OVCAR-8 ovarian
RPMI-8226 leukemia = system: RPMI-8226 leukemia
RXF 393 renal = system: RXF 393 renal
RXF-631 renal = system: RXF-631 renal
SF-268 CNS = system: SF-268 CNS
SF-295 CNS = system: SF-295 CNS
SF-539 CNS = system: SF-539 CNS
SK-MEL-2 melanoma = system: SK-MEL-2 melanoma
SK-MEL-28 melanoma = system: SK-MEL-28 melanoma
SK-MEL-5 melanoma = system: SK-MEL-5 melanoma
SN12C renal = system: SN12C renal
SNB-19 CNS = system: SNB-19 CNS
SNB-75 CNS = system: SNB-75 CNS
SR leukemia = system: SR leukemia
SW-620 colon = system: SW-620 colon
TK-10 renal = system: TK-10 renal
U251 CNS = system: U251 CNS
UACC-257 melanoma = system: UACC-257 melanoma
UACC-62 melanoma = system: UACC-62 melanoma
UO-31 renal = system: UO-31 renal
XF 498 CNS = system: XF 498 CNS

Measured: TGI

CCOC(=O)C(C)(C)Oc1ccc2c(=O)cc(-c3ccc(Cl)cc3)oc2c1
> 100 µM: 786-0 renal | A498 renal | A549 NSCLC | ACHN renal | CCRF-CEM leukemia | COLO 205 colon | DLD-1 colon | DMS 114 small cell lung | DMS 273 small cell lung | EKVX NSCLC | HCC-2998 colon | HCT-116 colon | HCT-15 colon | HL-60(TB) leukemia | HOP-62 NSCLC | HT29 colon | IGROV1 ovarian | K-562 leukemia | KM20L2 colon | LOX IMVI melanoma | LXFL 529 NSCLC | M14 melanoma | M19-MEL melanoma | MALME-3M melanoma | MOLT-4 leukemia | NCI-H226 lung | NCI-H23 lung | NCI-H460 lung | OVCAR-3 ovarian | OVCAR-4 ovarian | OVCAR-8 ovarian | RPMI-8226 leukemia | RXF 393 renal | RXF-631 renal | SF-268 CNS | SF-295 CNS | SF-539 CNS | SK-MEL-2 melanoma | SK-MEL-28 melanoma | SK-MEL-5 melanoma | SN12C renal | SNB-19 CNS | SNB-75 CNS | SR leukemia | SW-620 colon | TK-10 renal | U251 CNS | UACC-257 melanoma | UACC-62 melanoma | UO-31 renal | XF 498 CNS
